One assay deals with T1, rPAPD5 (Homo sapiens, UniProt Q8NDF8).
T1 construct: made in house
T1 sequence (Q8NDF8 68-698 isoform Q8NDF8-5 limits assumed): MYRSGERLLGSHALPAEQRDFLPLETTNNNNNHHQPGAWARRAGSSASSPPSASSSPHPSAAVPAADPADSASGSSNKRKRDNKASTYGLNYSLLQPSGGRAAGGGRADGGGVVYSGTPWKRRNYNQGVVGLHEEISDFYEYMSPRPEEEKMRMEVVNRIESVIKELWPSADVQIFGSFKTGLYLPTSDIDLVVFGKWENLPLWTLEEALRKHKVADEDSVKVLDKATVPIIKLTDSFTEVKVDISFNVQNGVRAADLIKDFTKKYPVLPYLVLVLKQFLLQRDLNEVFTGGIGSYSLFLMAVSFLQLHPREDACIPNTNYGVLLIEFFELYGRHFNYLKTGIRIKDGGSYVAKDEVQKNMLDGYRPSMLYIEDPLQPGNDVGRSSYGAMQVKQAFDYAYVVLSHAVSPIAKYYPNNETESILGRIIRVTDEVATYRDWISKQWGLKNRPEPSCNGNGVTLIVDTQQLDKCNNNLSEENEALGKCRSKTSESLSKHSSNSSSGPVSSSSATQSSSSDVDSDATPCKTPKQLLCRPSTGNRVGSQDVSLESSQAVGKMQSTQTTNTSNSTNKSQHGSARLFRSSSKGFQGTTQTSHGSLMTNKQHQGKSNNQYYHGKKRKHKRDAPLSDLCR
The assay can be described thus: differential scanning fluorimetry (DSF) binding and stabilization of rPAPD5. Particulars: 100 μM test compound; shift vs DMSO control; read-out: ΔTm at 100 μM. As for the experimental part:
Binding and stabilization of rPAPD5 by test compounds was determined using differential scanning fluorimetry (DSF). DSF assays were performed to determine protein melting temperature using an indicator dye SYPRO orange (Thermo Fisher Scientific, S6651) diluted 1:5000 in […] of buffer containing […], […] (Jena Biosciences), 25 mM Tris-HCl, 5 mM MgCl2, 50 mM KCl. […] DMSO was used as a negative control. Each curve was an average of three measurements and Thermal Shift software (Thermo Fisher Scientific, 4466038) was used for analysis. […] The change in melting temperature (ΔTm) is in reference to the DMSO control. Referring to Table 2, “+” refers to ΔTm values below 1° C., “++” refers to ΔTm values from 1 to 5° C., and “+++” refers to ΔTm values above 5° C.
A general note: Differential scanning fluorimetry follows unfolding on heating by fluorescence.
As a reminder, the ΔTm is the change in melting temperature against a reference sample. As to `O=C(O)c1ccccc1Nc1c(-c2nccs2)cnc2ccc(Cl)cc12` [Compound 211A, 2-[(6-chloro-3-thiazol-2-yl-4-quinolyl)amino]benzoic acid], the ΔTm at 100 µM was greater than 5 °C. `CN1CCC(NS(=O)(=O)c2cnc3ccc(Cl)cc3c2Nc2ccccc2C(=O)O)CC1` [Compound 219A, 2-[[6-chloro-3-[(1-methyl-4-piperidyl)sulfamoyl]-4-quinolyl]amino]benzoic acid]: the ΔTm at 100 µM was 1 to 5 °C. In the case of `O=C(O)c1c(Nc2c(S(=O)(=O)N3CCOCC3)cnc3ccc(Cl)cc23)cccc1C(O)(O)C(F)(F)F` [Compound 127A-1], the ΔTm at 100 µM was greater than 5 °C.

Regarding `O=C(O)c1ccccc1Nc1c(C2CCS(=O)(=O)CC2)c[n+]([O-])c2ccc(Cl)cc12` [Compound 323A, 2-[[6-chloro-3-(1,1-dioxothian-4-yl)-1-oxido-quinolin-1-ium-4-yl]amino]benzoic acid], the ΔTm at 100 µM is greater than 5 °C. Same read-out and setting: as for `O=C(O)c1ccccc1Nc1c(S(=O)(=O)N2CCOCC2)cnc2ccc(-c3cnccc3C(F)(F)F)cc12` [Compound 168A, 2-[[3-morpholinosulfonyl-6-[4-(trifluoromethyl)-3-pyridyl]-4-quinolyl]amino]benzoic acid], the figure is 1 to 5 °C; as for `CN(C)c1ncc(-c2ccc3ncc(S(=O)(=O)N4CCOCC4)c(Nc4ccccc4C(=O)O)c3c2)cn1` [Compound 142A], 1 to 5 °C. The same measure, in the same setting: as for `O=S(=O)(c1cnc2ccc(Cl)cc2c1Nc1ccccc1B(O)O)N1CCOCC1` [Compound 292A, [2-[(6-chloro-3-morpholinosulfonyl-4-quinolyl)amino]phenyl]boronic acid], the figure is 1 to 5 °C; as for `O=C(O)c1cccc(F)c1Nc1c(S(=O)(=O)N2CCOCC2)cnc2ccc(Cl)cc12` [Compound 281A, 2-[(6-chloro-3-morpholinosulfonyl-4-quinolyl)amino]-3-fluoro-benzoic acid], greater than 5 °C; as for `O=C(O)c1ccccc1Nc1c(NC2CCNCC2)cnc2ccc(Cl)cc12` [Compound 186A, 2-[[6-chloro-3-(4-piperidylamino)-4-quinolyl]amino]benzoic acid], 1 to 5 °C. Still for that read-out and setting: as for `O=C(O)c1ccccc1Nc1c(C2CCC(F)(F)CC2)cnc2ccc(Cl)cc12` [Compound 205A, 2-[[6-chloro-3-(4,4-difluorocyclohexyl)-4-quinolyl]amino]benzoic acid], the figure is greater than 5 °C; as for `O=C(O)c1ccccc1Nc1c(S(=O)(=O)N2CCOCC2)cnc2ccc(-c3ccc4[nH]cnc4c3)cc12` [Compound 182A, 2-[[6-(1H-benzimidazol-5-yl)-3-morpholinosulfonyl-4-quinolyl]amino]benzoic acid], 1 to 5 °C. In the case of `O=C(O)c1cc(Cl)ccc1Sc1c(S(=O)(=O)N2CCOCC2)cnc2ccc(Cl)cc12` [Compound 330A, 5-chloro-2-[(6-chloro-3-morpholinosulfonyl-4-quinolyl)sulfanyl]benzoic acid], the ΔTm at 100 µM is greater than 5 °C. Same read-out and setting: with `O=C(O)c1ccccc1Nc1c(S(=O)(=O)N2CCOCC2)cnc2ccc(NC3CCC(F)(F)CC3)cc12` [Compound 238A, 2-[[6-[(4,4-difluorocyclohexyl)amino]-3-morpholinosulfonyl-4-quinolyl]amino]benzoic acid] the figure was 1 to 5 °C; with `O=C(O)c1cc(Br)ccc1Nc1c(S(=O)(=O)N2CCOCC2)cnc2ccc(Cl)cc12` [Compound 268A, 5-bromo-2-[(6-chloro-3-morpholinosulfonyl-4-quinolyl)amino]benzoic acid], less than 1 °C; with `CCc1ccc(Nc2c(S(=O)(=O)N3CCOCC3)cnc3ccc(Cl)cc23)c(C(=O)O)c1` [Compound 318A, 2-[(6-chloro-3-morpholinosulfony 1-4-quinolyl)amino]-5-ethyl-benzoic acid], greater than 5 °C. Consider `CN1CCN(c2ccc(-c3ccc4ncc(S(=O)(=O)N5CCOCC5)c(Nc5ccccc5C(=O)O)c4c3)cn2)CC1` [Compound 165A, 2-[[6-[6-(4-methylpiperazin-1-yl)-3-pyridyl]-3-morpholinosulfonyl-4-quinolyl]amino]benzoic acid], for which the ΔTm at 100 µM was in the range of 1 to 5 °C.

For `COc1ccc(C(=O)O)c(Nc2c(S(=O)(=O)N3CCOCC3)cnc3ccc(Cl)cc23)c1` [Compound 277A, 2-[(6-chloro-3-morpholinosulfonyl-4-quinolyl)amino]-4-methoxy-benzoic acid], the ΔTm at 100 µM is greater than 5 °C. Same read-out and setting: with `CC(=O)c1ccc(-c2ccc3ncc(S(=O)(=O)N4CCOCC4)c(Nc4ccccc4C(=O)O)c3c2)s1` [Compound 138A] the figure was greater than 5 °C.

Turning to `O=C(O)c1ccccc1Nc1c(S(=O)(=O)N2CCOCC2)cnc2ccc(-c3ccc(S(=O)(=O)N4CCOCC4)cc3)cc12` [Compound 172A, 2-[[3-morpholinosulfonyl-6-(4-morpholinosulfonylphenyl)-4-quinolyl]amino]benzoic acid], the thermal shift (ΔTm) at 100 µM fell in the range of 1 to 5 °C.

Turning to `O=C(O)c1ccc(B(O)O)cc1Nc1c(S(=O)(=O)N2CCOCC2)cnc2ccc(Cl)cc12` [Compound 289A, 4-borono-2-[(6-chloro-3-morpholinosulfonyl-4-quinolyl)amino]benzoic acid], the ΔTm at 100 µM is greater than 5 °C. On the same count and under the same terms, with `O=C(O)c1ccccc1Nc1c(S(=O)(=O)N2CCOCC2)cnc2ccc(-c3ccc4c(c3)OCO4)cc12` [Compound 175A, 2-[[6-(1,3-benzodioxol-5-yl)-3-morpholinosulfonyl-4-quinolyl]amino]benzoic acid] the figure was greater than 5 °C. With `O=C(O)c1ccccc1Nc1c(S(=O)(=O)N2CCOCC2)cnc2ccccc12` [Compound 250A, 2-[(3-morpholinosulfonyl-4-quinolyl)amino]benzoic acid], the ΔTm at 100 µM is greater than 5 °C. On the same count and under the same terms, as for `O=C(O)c1ccccc1Nc1c(S(=O)(=O)N2CCOCC2)cnc2ccc(-c3ccc(-n4cccn4)cc3)cc12` [Compound 178A, 2-[[3-morpholinosulfonyl-6-(4-pyrazol-1-ylphenyl)-4-quinolyl]amino]benzoic acid], the figure is 1 to 5 °C. In the case of `O=C(O)c1ccc(O)cc1Nc1c(S(=O)(=O)N2CCOCC2)cnc2ccc(Cl)cc12` [Compound 273A, 2-[(6-chloro-3-morpholinosulfonyl-4-quinolyl)amino]-4-hydroxy-benzoic acid], the ΔTm at 100 µM was 1 to 5 °C. As for `O=C(O)c1ccccc1Nc1c(S(=O)(=O)N2CCOCC2)cnc2ccc(-c3ccnc(N4CCNCC4)c3)cc12` [Compound 169A, 2-[[3-morpholinosulfonyl-6-(2-piperazin-1-yl-4-pyridyl)-4-quinolyl]amino]benzoic acid], the ΔTm at 100 µM is less than 1 °C. The same measure, in the same setting: with `O=C(O)c1ccccc1Nc1c(S(=O)(=O)N2CCOCC2)cnc2ccc(OC(F)F)cc12` [Compound 236A, 2-[[6-(difluoromethoxy)-3-morpholinosulfonyl-4-quinolyl]amino]benzoic acid] the figure was greater than 5 °C; with `O=C(O)c1c(Nc2c(S(=O)(=O)N3CCOCC3)cnc3ccc(Cl)cc23)ccc(Cl)c1O` [Compound 324A, 3-chloro-6-[(6-chloro-3-morpholinosulfonyl-4-quinolyl)amino]-2-hydroxy-benzoic acid], greater than 5 °C.

The assay is the same for the next values; noted with them: read-out: ΔTm at 100 μM.
Take `NC(=O)c1ccc(Nc2c(S(=O)(=O)N3CCOCC3)cnc3ccc(Cl)cc23)c(C(=O)O)c1` [Compound 373A, 5-carbamoyl-2-[(6-chloro-3-morpholinosulfonyl-4-quinolyl)amino]benzoic acid]: the ΔTm at 100 µM is 1 to 5 °C. Still for that read-out and setting: as for `O=C(O)c1ccccc1Sc1c(S(=O)(=O)N2CCOCC2)cnc2ccc(Cl)cc12` [Compound 328A], the figure is 1 to 5 °C.

The values are drawn from patent US20250026769A1, “PAPD5 INHIBITORS AND METHODS OF USE THEREOF” (The Children's Medical Center Corporation, priority 2021, published 2025).
